In patent US20210113524A1, “METHODS OF TREATING MYELOPROLIFERATIVE DISORDERS” (The Henry M. Jackson Foundation for the Advancement of …, priority 2018, published 2021):

Key:
Gata1^low mice [1] = assay: Flow cytometry of CD115-/CD41+ megakaryocytes in bone marrow of Gata1^low mice; conditions: 72 mg/kg/day captopril from 10 to 12 months, euthanized at 13 months, untreated Gata1^low 1.45%, wild type 0.5%, p<0.05
[2] = system: C57BL/6 mice exposed to 7.9 Gy total body 60Co irradiation; assay: Serum growth factor and cytokine levels (MSD/ELISA) after 7.9 Gy total body irradiation; conditions: 7.9 Gy TBI
Gata1^low mice [3] = assay: qRT-PCR of CD41, CD61, Col1a, Col3a2 mRNA in femur bone marrow of Gata1^low mice; conditions: 72 mg/kg/day captopril, vs untreated mice, p<0.05
Gata1^low mice [4] = assay: Peripheral complete blood counts with differentials in Gata1^low mice; format: in vivo, mouse; conditions: 72 mg/kg per day captopril in drinking water from 10 to 12 months, euthanized at 13.5 months
Text: HEMATOL. […] Control animals received acidified water (vehicle) without captopril.
Separate mice were used for each point (n=5-6 per group).
Peripheral blood counts were studied in captopril-treated and untreated Gata1^low mice and their wild-type littermates. […] Complete blood cell counts with differentials were obtained.

Gata1^low mice [5] = assay: Flow cytometry of megakaryocytes in spleen of Gata1^low mice; conditions: captopril treatment, p<0.05
Gata1^low mice [6] = assay: qRT-PCR of CD41, CD61, Col1a, Col3a2 mRNA in spleen-derived cells of Gata1^low mice; conditions: captopril treated Gata1^low mice
[7] = system: mice exposed to total body radiation; conditions: mice exposed to total body radiation (Davis et al. 2010); cited from earlier work
Gata1^low mice [8] = assay: Spleen histology and spleen weight in Gata1^low mice; format: in vivo, mouse
Method: (§1) All animal handling procedures were performed in compliance with guidelines from the National Research Council for the ethical handling of laboratory animals and were approved by the Uniformed Services University of the Health Sciences Institutional Animal Care and Use Committee. Male and female Gata1^low and wild type CD1 mice were purchased from Jackson Laboratories (Bar Harbor, Me.). Quantitative PCR confirmed low expression of Gata1. The mice were crossed to a CD1 background to establish a line of homozygous mutant mice. Mice were kept in a barrier facility for animals accredited by the Association for Assessment and Accreditation of Laboratory Animal Care International. Mice were housed in groups of four. Animal rooms were maintained at 21±2° C., 50%±10% humidity, and 12-hour light/dark cycle with commercial, freely-available rodent ration (Harlan Teklad Rodent Diet 8604, Frederick, Md., USA).
(§2) HEMATOL. 2010; 38: 270-81. […] 2005; 29: 30-6. Based on previously measured volumes of water consumed per day by the mice, the daily water consumption was determined to be a dose of […] [Davis et al., 2010]. Control animals received acidified water (vehicle) without captopril. Animals were euthanized at 13 months of age.
(§3) Tissues were paraffin blocked and stained using standard methods for hematoxylin and eosin (H&E), Masson's trichrome, and Gomori's reticulin stain by Histoserve (Germantown, Md.). Stained slides were evaluated by a pathologist who was blinded to the identity of the treatment groups and using a published system for scoring myelofibrosis [Kvasnicka, H. M., Problems and pitfalls in grading of bone marrow fibrosis, collagen deposition and osteosclerosis—a consensus-based study, HISTOPATHOLOGY 2016; 68: 905-15]. Bone marrow sections were digitally scanned using the Zeiss Axioscan, and images were produced with Zen Lite software (Carl Zeiss, USA).
Levels of megakaryocytes and extramedullary hematopoiesis were compared in the spleens of wild-type, untreated Gata1^low, and captopril-treated Gata1^low mice. […]

Gata1^low mice [9] = assay: Bone marrow histology and myelofibrosis (reticulin) scoring in Gata1^low mice; format: in vivo, mouse
Method: as §1, §2, §3
To determine the efficacy of captopril in reversing MF, morphologic and phenotypic changes in the Gata1^low mouse model were evaluated. […]

With C[C@H](CS)C(=O)N1CCC[C@H]1C(=O)O [captopril] as the compound, how does the “number of CD115-/CD41+ megakaryocytes in bone marrow” value (Gata1^low mice [1]) read?
The value was 0.6 % of total live cells.

What about the “increase in serum EPO” value ([2]; 4 days post-irradiation, captopril 13 mg/kg/day in drinking water, same with or without captopril) of the same compound?
The value was roughly 10 fold.

What about the “serum EPO level” value ([2]; 7 days post-irradiation, captopril 13 mg/kg/day, radiation-plus-vehicle 8.66±0.9, mean±SEM) of the same compound?
The value was 0.57 ± 0.7 ng/mL.

And the “serum EPO level” value ([2]; 14 days post-irradiation, captopril 13 mg/kg/day, radiation-plus-vehicle 288±140, mean±SEM)?
Its value is 140 ± 24 ng/mL.

And the “serum EPO level” value ([2]; 21 days post-irradiation, captopril vs vehicle irradiated group)?
The value was “similarly elevated”.

What about the IL-6 levels post-irradiation ([2]; any time points (3-30 days), captopril 13 mg/kg/day) of the same compound?
Its IL-6 levels post-irradiation is “did not significantly suppress”.

What about the “serum EPO level” value ([2]; by 30 days post-irradiation, captopril-treated animals) of the same compound?
The value was “declined sharply”.

And the “radiation induced G-CSF” value ([2]; days 7 and 14 post-irradiation, captopril 13 mg/kg/day from 48 hours post-irradiation for 14 days, p<0.05 vs vehicle)?
The value was “significantly suppressed”.

And the “radiation-induced SAA1 levels” value ([2]; days 7 and 14 post-irradiation, delayed (48 hours) low-dose captopril 13 mg/kg/day, p<0.05 vs vehicle)?
Its value is “significantly attenuated”.

What about the “decrease of CD41 marker (qRT-PCR), bone marrow” value (Gata1^low mice [3]) of the same compound?
Its value is “approximately 3 fold”.

And the “decrease of CD61 marker (qRT-PCR), bone marrow” value (Gata1^low mice [3])?
The value was roughly 2 fold.

What about the “decrease of Col1a expression, bone marrow” value (Gata1^low mice [3]) of the same compound?
The value was “approximately 15 fold”.

And the “decrease of Col3a2 expression, bone marrow” value (Gata1^low mice [3])?
Its value is “approximately 4 fold”.

And the platelet count (Gata1^low mice [4])?
Its platelet count is “did not ameliorate”.

And the eosinophils (Gata1^low mice [4]; vs untreated Gata1^low)?
The eosinophils was “normalized”.

What about the lymphocytes (Gata1^low mice [4]; vs untreated Gata1^low) of the same compound?
Its lymphocytes is “normalized”.

What about the neutrophils (Gata1^low mice [4]; vs untreated Gata1^low) of the same compound?
Its neutrophils is “normalized”.

And the “white blood cells (WBC)” value (Gata1^low mice [4]; vs untreated Gata1^low)?
Its value is “normalized”.

What about the “decrease in the frequency of megakaryocytes as a percentage of total live cells, spleen” value (Gata1^low mice [5]) of the same compound?
The value was roughly 2 fold.

And the “Col3a2 expression (qPCR), spleen” value (Gata1^low mice [6])?
Its value is “trend toward reduced Col3a2 expression, although this did not reach significance”.

And the “decrease of CD41 marker (qRT-PCR), spleen” value (Gata1^low mice [6]; p<0.05)?
Its value is “about 6 fold”.

What about the “decrease of CD61 marker (qRT-PCR), spleen” value (Gata1^low mice [6]; p<0.05) of the same compound?
Its value is “about 5 fold”.

And the “reduction in the level of Col1a expression (qPCR), spleen” value (Gata1^low mice [6]; p<0.05)?
The value was roughly 4 fold.

What about the “blood cell recovery (red blood cells, reticulocytes, platelets) and recovery of colony forming units (CFU-GM, CFU-M, total)” value [7] of the same compound?
Its value is “improving blood cell recovery”.

What about the survival rates [7] of the same compound?
Its survival rates is “improved survival rates”.

And the “decrease in splenic weight” value (Gata1^low mice [8]; captopril for 2 months, vs untreated Gata1^low mice, p<0.05)?
Its value is roughly 2 fold.

And the “extramedullary hematopoiesis in spleen (histology)” value (Gata1^low mice [8]; captopril for two months, untreated Gata1^low: significant)?
Its value is “moderate amounts of extramedullary hematopoiesis”.

What about the “atypical megakaryocytes in spleen (histology)” value (Gata1^low mice [8]; captopril for two months, vs untreated Gata1^low) of the same compound?
Its value is “reduced numbers of atypical megakaryocytes”.

What about the “megakaryocytic hyperplasia in bone marrow (histology)” value (Gata1^low mice [9]; captopril for two months (10-12 months of age), evaluated at 13 months, untreated Gata1^low: moderate) of the same compound?
The value was “only mild megakaryocytic hyperplasia”.

And the “averaged bone marrow reticulin score” value (Gata1^low mice [9]; captopril for two months, score out of 3, untreated Gata1^low 1.8, wild type 0)?
Its value is 0.5.

And the “severity of bone marrow fibrosis (histology)” value (Gata1^low mice [9]; captopril in drinking water (79 mg/kg/day) from 10-12 months of age, evaluated at 13 months, vs untreated Gata1^low)?
The value was “reduced the severity off bone marrow fibrosis”.
